# Results: patent US20240391931A1 (Bristol-Myers Squibb Company, priority 2021, published 2024)
# Structures can show the parent of a compound that is named as a salt.
# Target: HER2YVMA (Homo sapiens, UniProt P04626, INS775YVMA)
# Assay: HER2 signaling (pHER2) in Hek293-HER2YVMA cells
# Assay type: cell-based
# Design: expressed in transfected cells; host or cells: HEK293 (pool), Ba/F3 (clones), BEAS2B (clones); lentiviral vector pCDH-CMV-MCS-EF1-Neo
# Settings: 1.5 hr compound, 1% FBS, read-out: HEKYVMA pHER2 EC50
# Protocol: Cell culture, plasmid cloning, and lentiviral transduction were carried out according to standard procedures. The Human HER2 cDNA construct in pCMV6-Entry for the HER2 wildtype (WT) expression was obtained from Origene. The HER2 cDNA including the 12-nucleotide insertion corresponding to YVMA insertion (HER2YVMA) was codon optimized, synthesized and cloned by GenScript (Piscataway, NJ) in pcDNA3.1. The lentiviral constructs expressing HER2YVMA and HER2 WT were sub-cloned using PCR at System Biosciences (SBI, Mountainview, CA) into lentiviral vectors pCDH-CMV-MCS-EF1-Neo and lentiviral particles were generated.
# Engineered lines expressing HER2YVMA and HER2 WT were prepared in HEK293 (human embryonic kidney cells), Ba/F3 (Interleukin 3 (IL3)-dependent murine pro B cell line), and BEAS2B (primary immortalized human bronchial epithelial cell line). Ba/F3, BEAS2B, and HEK293 cells were obtained from the American Type Culture Collection (ATCC, Manassas, VA). Parental Ba/F3 cells were grown in suspension in complete RPMI 1640 supplemented with 10% FBS and 1% P/S and 10 ng/ml interleukin 3 (IL3, Sigma-Aldrich). Hek293 and BEAS2B cells were grown as monolayers in DMEM supplemented with 10% FBS and 1% P/S. All cells were maintained and propagated in a humidified 5% CO2 incubator at 37° C.
# To generate Ba/F3, BEAS2B, and Hek-293 cells engineered with lentivirus to express HER2 WT or HER2YVMA, the cells were transduced with lentiviruses at multiplicity of infection (MOI) of 1 or 10; transduced cells were selected and maintained with G418 ([…]) (Geneticin, Life Technologies, Carlsbad, CA). Ba/F3 engineered cells were subjected to gradual withdrawal of interleukin 3 (IL-3, Sigma-Aldrich). After selection, IL3 independent Ba/F3 HER2YVMA, and BEAS2B HER2YVMA cells were cloned by limiting dilution. Hek293 HER2YVMA cells were used as pool. HER2 and phospho HER2 levels were confirmed by flow cytometery and immunoassay (MSD, Meso-Scale Discovery, Rockville, Maryland).
# HER2 signaling was assessed in BT474 and N87 cell lines which endogenously overexpress the HER2 wildtype (WT) protein, in NCI-H1781 cells which endogenously expresses a HER2 mutant protein containing a VC insertion in the kinase domain (HER2VC or G776delinsVC), and in engineered cell lines transduced to express the Her2 mutant protein containing the YVMA insertion (Hek293-HER2YVMA and BEAS2B-HER2YVMA).
# BT474, N87, and NCI-H1781 were plated in 96-well tissue-culture treated plates (Corning Costar, Sigma-Aldrich) in full media and incubated overnight. Hek293-HER2YVMA and BEAS2B-HER2YVMA cells were plated in 96-well poly-D-lysine treated plates (BD Bioscience, San Jose, CA). For treatment with test compounds, the media was replaced with corresponding low serum media (1% FBS) containing test compound at 1.1, 0.37, 0.12, 0.041, 0.014, 0.005, 0.0014, 0.0005 μM or DMSO control (0.1%). Cells were incubated with compound for 1.5 hr at 37° C. After compound treatment, the media was removed and cells were lysed for 30 min on ice in complete MSD lysis buffer (prepared using MSD base lysis buffer (Meso-Scale Discovery) supplemented with cOmplete, EDTA-free Protease inhibitor cocktail (Roche), Phosphatase Inhibitor Cocktails 2 and 3 (Sigma-Aldrich), and 1 mM PMSF (Sigma-Aldrich)). Lysates were stored at −70° C. until further analysis.
# HER2 signaling was evaluated using phospho (Tyr1248)/total ErbB2 whole cell lysate MSD plates (Meso-Scale Discovery, Gaithersburg, MD). The phospho HER2 signal was normalized to total HER2 for each sample; results are reported as % DMSO control. The normalized data was fitted using a sigmoidal curve analysis program (Graph Pad Prism version 6) with variable Hill slope to determine EC50 values.
# The HER2 signaling results are provided in Table 4, under columns titled “BT474-pHER2 EC50”, “N87-pHER2 EC50”, and “NCI-H1781-pHER2 EC50”. […]
# HER2YVMA, sequence (P04626 with tags, fused parts or gaps INS775YVMA): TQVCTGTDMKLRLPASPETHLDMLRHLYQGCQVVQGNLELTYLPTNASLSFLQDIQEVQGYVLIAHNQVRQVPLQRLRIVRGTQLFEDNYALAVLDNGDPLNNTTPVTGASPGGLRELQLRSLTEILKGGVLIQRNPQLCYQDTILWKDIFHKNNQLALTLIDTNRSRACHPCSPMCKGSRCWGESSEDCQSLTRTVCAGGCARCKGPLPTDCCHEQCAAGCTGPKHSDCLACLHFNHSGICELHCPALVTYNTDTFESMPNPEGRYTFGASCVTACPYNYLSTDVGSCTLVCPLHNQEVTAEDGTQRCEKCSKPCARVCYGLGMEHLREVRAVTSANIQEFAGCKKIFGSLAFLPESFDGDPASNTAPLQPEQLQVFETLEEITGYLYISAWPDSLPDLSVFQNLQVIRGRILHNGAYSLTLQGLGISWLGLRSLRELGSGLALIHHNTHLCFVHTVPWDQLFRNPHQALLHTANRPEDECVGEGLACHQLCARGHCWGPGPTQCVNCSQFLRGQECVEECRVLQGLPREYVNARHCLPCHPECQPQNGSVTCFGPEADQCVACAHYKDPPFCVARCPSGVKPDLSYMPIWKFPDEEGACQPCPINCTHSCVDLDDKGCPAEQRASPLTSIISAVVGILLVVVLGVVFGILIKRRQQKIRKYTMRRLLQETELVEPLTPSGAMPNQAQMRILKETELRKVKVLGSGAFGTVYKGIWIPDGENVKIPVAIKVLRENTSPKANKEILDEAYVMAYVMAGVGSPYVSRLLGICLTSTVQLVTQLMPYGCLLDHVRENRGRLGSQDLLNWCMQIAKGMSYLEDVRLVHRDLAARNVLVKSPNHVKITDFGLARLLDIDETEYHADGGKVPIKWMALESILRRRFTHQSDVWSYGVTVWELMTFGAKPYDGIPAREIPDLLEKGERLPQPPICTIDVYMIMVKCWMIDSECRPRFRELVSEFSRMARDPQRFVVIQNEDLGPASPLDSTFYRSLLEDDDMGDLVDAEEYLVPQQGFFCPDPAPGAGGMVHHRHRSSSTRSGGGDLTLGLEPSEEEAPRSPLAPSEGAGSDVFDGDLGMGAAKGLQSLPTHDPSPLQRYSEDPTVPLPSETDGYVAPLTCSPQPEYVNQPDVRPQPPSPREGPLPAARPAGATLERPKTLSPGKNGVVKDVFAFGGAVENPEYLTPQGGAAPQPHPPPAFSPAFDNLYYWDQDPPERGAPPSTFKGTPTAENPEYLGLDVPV
row,Structure (SMILES),EC50 [nM]
1,"Cc1ccc(Oc2ccc(Nc3ncnc4sc5c(c34)C[C@@H](C)N(C(=O)/C=C/CN(C)C)[C@H]5C)cc2C)cn1 (racemic) [Compound 149, (E)-1-(6,8-cis-dimethyl-4-((3-methyl-4-((6-methylpyridin-3-yl)oxy)phenyl)amino)-5,8-dihydropyrido[4′,3′:4,5]thieno[2,3-d]pyrimidin-7(6H)-yl)-4-(dimethylamino)but-2-en-1-one]",< 100
2,"C=CC(=O)N1Cc2sc3ncnc(Nc4ccc(Oc5ccc(C)nc5)c(C)c4)c3c2C(C)C1 (single isomer, unassigned) [Compound 145]",< 100
3,"C=CC(=O)N1Cc2sc3ncnc(Nc4ccc(Oc5ccc(C)nc5)c(C)c4)c3c2C(C)C1 (single isomer, unassigned) [Compound 146]",< 100
4,"Cc1ccc(Oc2ccc(Nc3ncnc4sc5c(c34)C(C)N(C(=O)C=CCN(C)C)C5)cc2C)cn1 (single isomer, unassigned) [Compound 147]",< 100
5,"Cc1ccc(Oc2ccc(Nc3ncnc4sc5c(c34)C(C)N(C(=O)C=CCN(C)C)C5)cc2C)cn1 (single isomer, unassigned) [Compound 148]",350 to 1000
6,"COc1ccc(Oc2ccc(Nc3ncnc4sc5c(c34)C(C)CN(C(=O)C=CCN(C)C)C5)cc2C)cn1 (single isomer, unassigned) [Compound 159]",< 100
7,"C=CC(=O)N1CCc2c(sc3ncnc(Nc4ccc(Oc5cccnc5)c(Cl)c4)c23)C1 [Compound 6, 1-(4-((3-chloro-4-(pyridin-3-yloxy)phenyl)amino)-5,8-dihydropyrido[4′,3′:4,5]thieno[2,3-d]pyrimidin-7(6H)-yl)prop-2-en-1-one]",< 100
8,"COc1cc(Nc2ncnc3sc4c(c23)CCN(C(=O)/C=C/CN(C)C)C4)ccc1Oc1ccccc1 [Compound 7, (E)-4-(dimethylamino)-1-(4-((3-methoxy-4-phenoxyphenyl)amino)-5,8-dihydropyrido[4′,3′:4,5]thieno[2,3-d]pyrimidin-7(6H)-yl)but-2-en-1-one]",< 100
9,"Cc1ccc(Oc2ccc(Nc3ncnc4sc5c(c34)CCN(C(=O)/C=C/CN(C)C)C5)cc2C)cn1 [Compound 8, (E)-4-(Dimethylamino)-1-(4-((3-methyl-4-((6-methylpyridin-3-yl)oxy)phenyl)amino)-5,6-dihydropyrido[4′,3′:4,5]thieno[2,3-d]pyrimidin-7(8H)-yl)but-2-en-1-one]",< 100
10,"C=CC(=O)N1CCc2c(sc3ncnc(Nc4ccc(Oc5cccnc5)c(C)c4)c23)C1 [Compound 11, 1-(4-((3-methyl-4-(pyridin-3-yloxy)phenyl)amino)-5,8-dihydropyrido[4′,3′:4,5]thieno[2,3-d]pyrimidin-7(6H)-yl)prop-2-en-1-one]",< 100
11,Cc1cc(Nc2ncnc3sc4c(c23)CCN(C(=O)/C=C/CN2CCOCC2)C4)ccc1Oc1ccc2ncnn2c1 [Compound 12],< 100
12,Cc1ccc(Oc2ccc(Nc3ncnc4sc5c(c34)CCN(C(=O)/C=C/CN3CC4CCC(C3)O4)C5)cc2C)cn1 [Compound 13],< 100
13,Cc1ccc(Oc2ccc(Nc3ncnc4sc5c(c34)CCN(C(=O)/C=C/CN3CC4CCC3C4)C5)cc2C)cn1 (stereo not shown) [Compound 14],< 100
14,Cc1ccc(Oc2ccc(Nc3ncnc4sc5c(c34)CCN(C(=O)/C=C/CN3CC4CC(C3)O4)C5)cc2C)cn1 [Compound 15],< 100
15,"Cc1ccc(Oc2ccc(Nc3ncnc4sc5c(c34)CCN(C(=O)/C=C/CN3CC4CCC(C4)C3)C5)cc2C)cn1 [Compound 16, (E)-4-(3-azabicyclo[3.2.1]octan-3-yl)-1-(4-((3-methyl-4-((6-methylpyridin-3-yl)oxy)phenyl)amino)-5,8-dihydropyrido[4′,3′:4,5]thieno[2,3-d]pyrimidin-7(6H)-yl)but-2-en-1-one benzenesulfonate salt]",< 100
16,"Cc1ccc(Oc2ccc(Nc3ncnc4sc5c(c34)CCN(C(=O)/C=C/CN3CCOCC3)C5)cc2C)cn1 [Compound 17, (E)-1-(4-((3-Methyl-4-((6-methylpyridin-3-yl)oxy)phenyl)amino)-5,6-dihydropyrido[4′,3′:4,5]thieno[2,3-d]pyrimidin-7(8H)-yl)-4-morpholinobut-2-en-1-one]",< 100
17,O=C(/C=C/CN1CCOCC1)N1CCc2c(sc3ncnc(Nc4ccc(Oc5ccc6ncnn6c5)c(Cl)c4)c23)C1 [Compound 18],< 100

# Continued, values first:
row,EC50 [nM],Structure (SMILES)
1,100 to 350,"Cc1ccc(Oc2ccc(Nc3ncnc4sc5c(c34)C[C@@H](C)N(C(=O)/C=C/CN(C)C)[C@@H]5C)cc2C)cn1 (racemic) [Compound 165, (E)-1-(6,8-trans-dimethyl-4-((3-methyl-4-((6-methylpyridin-3-yl)oxy)phenyl)amino)-5,8-dihydropyrido[4′,3′:4,5]thieno[2,3-d]pyrimidin-7(6H)-yl)-4-(dimethylamino)but-2-en-1-one]"
2,< 100,"C=CC(=O)N1[C@H](C)Cc2c(sc3ncnc(Nc4ccc(Oc5ccc(C)nc5)c(C)c4)c23)[C@H]1C (racemic) [Compound 166, 1-(6,8-trans-dimethyl-4-((3-methyl-4-((6-methylpyridin-3-yl)oxy)phenyl)amino)-5,8-dihydropyrido[4′,3′:4,5]thieno[2,3-d]pyrimidin-7(6H)-yl)prop-2-en-1-one]"
3,< 100,"COc1ccc(Oc2ccc(Nc3ncnc4sc5c(c34)C(C)CN(C(=O)C=CCN(C)C)C5)cc2C)cn1 (single isomer, unassigned) [Compound 160]"
4,< 100,"Cc1ccc(Oc2ccc(Nc3ncnc4sc5c(c34)CC(C)N(C(=O)C=CCN(C)C)C5C)cc2C)cn1 (single isomer, unassigned) [Compound 161]"
5,100 to 350,"Cc1ccc(Oc2ccc(Nc3ncnc4sc5c(c34)CC(C)N(C(=O)C=CCN(C)C)C5C)cc2C)cn1 (single isomer, unassigned) [Compound 162]"
6,< 100,"Cc1ccc(Oc2ccc(Nc3ncnc4sc5c(c34)CN(C(=O)C=CCN(C)C)C5C)cc2C)cn1 (single isomer, unassigned) [Compound 169]"
7,350 to 1000,"Cc1ccc(Oc2ccc(Nc3ncnc4sc5c(c34)CN(C(=O)C=CCN(C)C)C5C)cc2C)cn1 (single isomer, unassigned) [Compound 170]"
8,< 100,"Cc1ccc(Oc2ccc(Nc3ncnc4sc5c(c34)C(C)CN(C(=O)C=CCN3CCOCC3)C5)cc2C)cn1 (single isomer, unassigned) [Compound 176]"
9,< 100,"Cc1ccc(Oc2ccc(Nc3ncnc4sc5c(c34)C(C)CN(C(=O)C=CCN3CCOCC3)C5)cc2C)cn1 (single isomer, unassigned) [Compound 177]"
10,< 100,"Cc1ccc(Oc2ccc(Nc3ncnc4sc5c(c34)C(C)CN(C(=O)C=CCN(C)C(C)(C)C)C5)cc2C)cn1 (single isomer, unassigned) [Compound 178]"
11,< 100,"Cc1ccc(Oc2ccc(Nc3ncnc4sc5c(c34)C(C)CN(C(=O)C=CCN(C)C(C)(C)C)C5)cc2C)cn1 (single isomer, unassigned) [Compound 179]"
